In patent US20090181950A1, “Histamine Receptor Antagonists Comprising an Azepin Core” (GLAXO GROUP LIMITED, priority 2006, published 2009):
Where a name gives a salt, the structure may show the parent alone.

What was measured:
human H1 receptor = target: T1, human H1 receptor (Homo sapiens, UniProt P35367); test: Histamine H1 functional antagonist assay (FLIPR): antagonist pA2; type: cell-based
T1 construct: expressed in transfected cells
Procedure: The human H1 receptor is cloned using known procedures described in the literature [Biochem. Biophys. Res. Commun., 201(2):894 (1994)]. Chinese hamster ovary (CHO) cells stably expressing the human H1 receptor are generated according to known procedures described in the literature [Br. J. Pharmacol., 117(6):1071 (1996)].
The histamine H1 receptor expressing CHO cells are seeded into non-coated black-walled clear bottom 96-well tissue culture plates as described above.
Following overnight culture, growth medium is removed from each well, washed with 200 μl phosphate buffered saline (PBS) and is replaced with 50 μl loading dye (250 μM Brilliant Black, 1 μM Fluo-4 diluted in Tyrodes buffer+probenecid (145 mM NaCl, 2.5 mM KCl, 10 mM HEPES, 10 mM D-glucose, 1.2 mM MgCl2, 1.5 mM CaCl2, 2.5 mM probenecid, pH adjusted to 7.40 with NaOH 1.0 M)). Cells are incubated for 45 min at 37° C. The loading buffer is removed and the cells are washed as above, and 90 μl of Tyrodes buffer+probenecid is added to each well. 10 μl of test compound, diluted to the required concentration in Tyrodes buffer+probenecid (or 10 μl Tyrodes buffer+probenecid as a control) is added to each well and the plate is incubated for 30 min at 37° C., 5% CO2.
The plates are then placed into a FLIPR™ (Molecular Devices, UK) to monitor cell fluorescence (λex=488 nm, λEM=540 nm) in the manner described in Sullivan et al., (In: Lambert DG (ed.), Calcium Signaling Protocols, New Jersey: Humana Press, 1999, 125-136) before and after the addition of 50 μl histamine over a concentration range of 1 mM-0.1 nM. The resultant concentration response curves are analysed by non-linear regression using a standard four parameter logistic equation to determine the histamine EC50, the concentration of histamine required to produce a response of 50% of the maximum response to histamine. The antagonist pA2 is calculated using the following standard equation: pA2=log(DR−1)−log[B] where DR=dose ratio, defined as EC50antagonist-treated/EC50control and [B]=concentration of antagonist.

[1] = CNS penetration by bolus administration; type: in vivo, male CD Sprague Dawley rats; settings: 1 mg/kg intravenously, blood and brain at 5 min post-dose
Procedure: Compounds are dosed intravenously at a nominal dose level of 1 mg/kg to male CD Sprague Dawley rats. Compounds are formulated in 5% DMSO/45% PEG200/50% water. Blood samples are taken under terminal anaesthesia with isoflurane at 5 min post-dose and the brains are also removed for assessment of brain penetration. Blood samples are taken directly into heparinised tubes. Blood samples are prepared for analysis using protein precipitation and brain samples are prepared using extraction of drug from brain by homogenisation and subsequent protein precipitation. The concentration of parent drug in blood and brain extracts is determined by quantitative LC-MS/MS analysis using compound-specific mass transitions.

T1 sequence (P35367 whole entry): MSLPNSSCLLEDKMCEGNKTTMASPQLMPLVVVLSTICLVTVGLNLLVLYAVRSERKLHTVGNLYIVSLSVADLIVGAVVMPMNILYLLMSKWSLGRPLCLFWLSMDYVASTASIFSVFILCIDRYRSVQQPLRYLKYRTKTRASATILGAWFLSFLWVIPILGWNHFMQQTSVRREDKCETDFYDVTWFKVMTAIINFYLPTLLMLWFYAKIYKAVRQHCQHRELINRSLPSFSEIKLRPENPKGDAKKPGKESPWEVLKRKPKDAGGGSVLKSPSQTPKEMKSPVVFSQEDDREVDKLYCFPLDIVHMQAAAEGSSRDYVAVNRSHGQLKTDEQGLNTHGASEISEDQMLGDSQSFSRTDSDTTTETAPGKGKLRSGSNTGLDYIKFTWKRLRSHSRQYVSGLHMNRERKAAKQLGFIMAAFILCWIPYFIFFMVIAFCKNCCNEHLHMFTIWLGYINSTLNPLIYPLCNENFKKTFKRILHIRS

Structure (SMILES) | Kb (human H1 receptor) [nM] | CNS penetration [1]
O=C(O)CCc1ccc2cc(Cc3ccccc3)cc(N3CCN(CCc4ccc(OCCCN5CCCCCC5)cc4)CC3)c2n1 [Example 1, 3-[8-{4-[2-(4-{[3-(Hexahydro-1H-azepin-1-yl)propyl]oxy}phenyl)ethyl]-1-piperazinyl}-6-(phenylmethyl)-2-quinolinyl]propanoic Acid, Formate Salt] | < 10 | low CNS penetration
CCc1cc(N2CCN(CCc3ccc(OCCCN4CCCCCC4)cc3)CC2)c2nc(CCC(=O)O)ccc2c1 [Example 2, 3-(6-Ethyl-8-{4-[2-(4-{[3-(hexahydro-1H-azepin-1-yl)propyl]oxy}phenyl)ethyl]-1-piperazinyl}-2-quinolinyl)propanoic Acid, Formate Salt] | < 10 | low CNS penetration
O=C(O)CCc1ccc2cccc(N3CCN(CCc4ccc(OCCCN5CCCCCC5)cc4)CC3)c2n1 [Example 3, 3-(8-{4-[2-(4-{[3-(Hexahydro-1H-azepin-1-yl)propyl]oxy}phenyl)ethyl]-1-piperazinyl}-2-quinolinyl)propanoic Acid, Formic Acid (1:2)] | < 10 | low CNS penetration
O=C(O)CCc1cnc2c(N3CCN(CCc4ccc(OCCCN5CCCCCC5)cc4)CC3)cccc2c1 [Example 5, 3-(8-{4-[2-(4-{[3-(hexahydro-1H-azepin-1-yl)propyl]oxy}phenyl)ethyl]-1-piperazinyl}-3-quinolinyl)propanoic Acid, Formic Acid Salt] | < 100 | 
CCCCc1cc(N2CCN(CCc3ccc(OCCCN4CCCCCC4)cc3)CC2)c2nc(CCC(=O)O)ccc2c1 [Example 6, 3-(6-Butyl-8-{4-[2-(4-{[3-(hexahydro-1H-azepin-1-yl)propyl]oxy}phenyl)ethyl]-1-piperazinyl}-2-quinolinyl)propanoic Acid, Formate Salt] | < 10 | 
